Experimental data from paper PMC11461078 (Oxidative Medicine and Cellular Longevity, 2024).
Read-outs that look alike come from different tables or passages of the source.

Experiments:
[1] = system: pTau; experiment: Tau (Phospho) [pS199] ELISA under oxidative stress; type: cell-based, human; settings: H2O2 200 μM pretreatment
Method: Tau (Pospho) protein was investigated by Tau (Phospho) [[…]] Human ELISA Kit (Thermo ScientificTM, Waltham, MA, USA) on CCF-STTG1 cell lysates. In summary, 100 μL of each sample was added to the plate, incubated at 37°C for 90 min, removed, and washed three times. Next, add 100 μL of detection solution A to each well and incubate at 37°C for 45 min. Post-incubation, wash wells, add 100 μL detection solution B, and incubate at 37°C for 45 min. After adding 90 μL of substrate solution, the plate was incubated at 37°C for 20 min in the dark. The reaction was stopped with 50 μL of stop solution, and the absorbance was measured at 450 nm using a spectrometer (Infinite 200 […], Männedorf, Switzerland). Results are shown as mean SD (%) relative to the control, and concentration is reported in ng/mL by comparing data to the standard curve (15.6-1,000 pg/mL).

[2] = system: BBB in vitro model (CCF-STTG1 cocultured with HUVEC on Transwells); settings: human
[3] = system: CCF-STTG1 cells; experiment: ROS production (cytochrome C reduction) under oxidative stress; type: cell-based, human; settings: for reduction of ROS production compared to H2O2 200 μM: H2O2 200 μM pretreatment, 24 hr treatment, green tea 100 μM, saffron 25 μM, citicoline 100 μM, trans-R 1 µM, MIX
Method: In a second set of experiments, the CCF-STTG1 cell line was pretreated with 200 μM H2O2 for 30 min to explore the effects of the combination under oxidative stress conditions compared to the single agents by analysing cell viability, ROS, and NO productions. In addition, inflammatory biomarkers (TNFα and IL-2), BDNF production, and intracellular apoptotic and neurodegenerative markers activated were also analysed by ELISA kit. A standard procedure based on cytochrome C reduction on CCF-STTG1 cells quantified superoxide anion release. After treatment, 100 μL of cytochrome C (1 mg/mL, Merck Life Science, Rome, Italy) and 100 μL of superoxide dismutase (0.1 mg/mL, Merck Life Science, Rome, Italy) were added to each sample for 30 min in an incubator. At 550 nm, a spectrophotometer (Infinite 200 […], Männedorf, Switzerland) assessed absorbance in cell culture supernatants. O2 rate was represented as the mean SD (%) of nanomoles per decreased cytochrome C per microgram of protein relative to the control (0 line).

[4] = system: human; design: method as in PMID 23403474; settings: 500 mg per day for 2 weeks; cited from earlier work
[5] = system: rats; design: method as in PMID 29470767; settings: tramadol toxicity, 30 mg/kg orally for 28 consecutive days; cited from earlier work
[6] = system: BDNF; experiment: BDNF quantification ELISA under oxidative stress; type: cell-based, human; settings: H2O2 200 μM
Method: (§1) Human BDNF ELISA Kit (Thermo ScientificTM, Waltham, MA, United States) quantified BDNF in CCF-STTG1 cell supernatants following the manufacturer's instructions. Each well received a biotinylated detection antibody, and the plate was incubated at room temperature for 1 hr. After 45 min of HRP-conjugated streptavidin incubation, TMB substrate solution was added for 30 min, and a stop solution terminated the reaction. To calculate BDNF concentration, absorbance was measured at 450 nm using a spectrometer (Infinite 200 Pro MPlex, Tecan, Männedorf, Switzerland) and compared to the standard curve (0.066–16 ng/mL). The data are presented as mean ± SD (%) compared to the untreated control sample. The cells were also given 10 ng/mL BDNF as a positive control.
as §1, with “Elisa” for “ELISA”, “The data are presented as mean ± SD (%) compared to the untreated control sample. The cells were also given 10 ng/mL BDNF as a positive control.” left out

[7] = system: CCF-STTG1 cells; experiment: Cell viability (MTT) under oxidative stress (200 µM H2O2 pretreatment); type: cell-based, human; settings: H2O2 200 μM
Method: In a second set of experiments, the CCF-STTG1 cell line was pretreated with 200 µM H2O2 for 30 min to explore the effects of the combination under oxidative stress conditions compared to the single agents by analysing cell viability, ROS, and NO productions. In addition, inflammatory biomarkers (TNFα and IL-2), BDNF production, and intracellular apoptotic and neurodegenerative markers activated were also analysed by ELISA kit.
A 96-well plate was used to measure cell viability of CCF-STTG1 cells after each stimulation using MTT-based In Vitro Toxicology Assay Kit (Merck Life Science, Milan, Italy), as reported in the literature. After stimulating cells, 1% MTT dye was incubated at 37°C in an incubator with 5% CO2 and 95% humidity, and purple formazan crystals were dissolved in MTT solubilisation solution after 2 hr. In addition, during the quantification, the background interference due to the extract was considered by making an empty sample (without cells but with the treatment), which was subtracted. To assess cell viability, absorbance at 570 nm with 690 nm correction was measured using a spectrometer (Infinite 200 Pro MPlex, Tecan, Männedorf, Switzerland) and compared to the control (0 line, which is 100% viable cells) and expressed in percentage.

| SMILES | Permeability values (Papp) ([2]; 4 h) [×10⁻⁶ cm/s] | Permeability values (Papp) ([2]; 12 h) [×10⁻⁶ cm/s] | Permeability values (Papp) ([2]; 24 h) [×10⁻⁶ cm/s] | reduction of ROS production compared to H2O2 200 μM [3] | further results |
| --- | --- | --- | --- | --- | --- |
| Oc1ccc(/C=C/c2cc(O)cc(O)c2)cc1 [trans-R, trans-Resveratrol] | 0.2 | 0.83 | 0.53 | about 46% | pTau expression (in words) [1]: inhibits its expression, similar to the MIX |
| C[N+](C)(C)CCOP(=O)(O)OP(=O)([O-])OC[C@H]1O[C@@H](n2ccc(N)nc2=O)[C@H](O)[C@@H]1O [citicoline, cytidine diphosphate (CDP)-choline] | 0.2 | 0.58 | 0.44 | about 37% | serum malondialdehyde (MDA) levels [4]: significantly decreased; vigilance, visual working memory, oxidative stress markers compared to placebo [4]: improve human vigilance, visual working memory, and oxidative stress markers |
| CC(/C=C/C=C(\C)C(=O)O[C@@H]1O[C@H](CO[C@@H]2O[C@H](CO)[C@@H](O)[C@H](O)[C@H]2O)[C@@H](O)[C@H](O)[C@H]1O)=C\C=C\C=C(C)\C=C\C=C(/C)C(=O)O[C@@H]1O[C@H](CO[C@@H]2O[C@H](CO)[C@@H](O)[C@H](O)[C@H]2O)[C@@H](O)[C@H](O)[C@H]1O [crocin] | – | – | – | – | learning and memory [5]: improved learning and memory |
| OO [H2O2] | – | – | – | – | reduction of BDNF production vs control [6]: ~ 30%; decrease in cell viability compared to the control [7]: about 22%; increase in ROS production compared to the control ([3]; H2O2 200 μM): about 42% |
